This is an account of results in the supplement of paper PMC10307832.

Common to all, as to experiment: relative viability (nuclei count vs DMSO), 5 days (fraction); higher = more cells survive
Compound in assay [1]: COc1cc(-c2nn([C@H]3CC[C@H](N4CCN(C(C)=O)CC4)CC3)c3ncnc(N)c23)ccc1NC(=O)c1cc2ccccc2n1C + C[C@]1(O)C[C@@H](c2nc(-c3ccc4ccc(-c5ccccc5)nc4c3)c3c(N)nccn32)C1 [Linsitinib] (partner 1 µM)
The procedure, abridged: (§1)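 For relative viability, nuclei counts in treated wells were divided by those in vehicle wells. Lung cancer cell lines had been pin-tool dosed in 1536-well plates the day after seeding and cultured for 5 days, then fixed and stained in one step (final 0.05% Triton X-100, 1% formaldehyde, 1 ug/ml Hoechst) and imaged at 4×. Doses were one drug alone or a fixed anchor-drug dose plus five library-drug doses (not always all listed) in √10 steps, and values are duplicate-plate medians.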

Compound in the assay “Midostaurin + Phenformin”: CO[C@@H]1[C@H](N(C)C(=O)c2ccccc2)C[C@H]2O[C@]1(C)n1c3ccccc3c3c4c(c5c6ccccc6n2c5c31)C(=O)NC4 [Midostaurin] + N=C(N)NC(=N)NCCc1ccccc1 [Phenformin] (partner 250 µM)
Put shortly: as §1

Compound in the assay “Midostaurin + Decitabine”: CO[C@@H]1[C@H](N(C)C(=O)c2ccccc2)C[C@H]2O[C@]1(C)n1c3ccccc3c3c4c(c5c6ccccc6n2c5c31)C(=O)NC4 [Midostaurin] + Nc1ncn([C@H]2C[C@H](O)[C@@H](CO)O2)c(=O)n1 [Decitabine] (partner 2 µM)
Put shortly: as §1

Compound in the assay “Midostaurin + Luminespib”: CO[C@@H]1[C@H](N(C)C(=O)c2ccccc2)C[C@H]2O[C@]1(C)n1c3ccccc3c3c4c(c5c6ccccc6n2c5c31)C(=O)NC4 [Midostaurin] + CCNC(=O)c1noc(-c2cc(C(C)C)c(O)cc2O)c1-c1ccc(CN2CCOCC2)cc1 [Luminespib] (partner 0.01 µM)
The procedure, abridged: as §1

Compound in the assay “Midostaurin + Pictilisib”: CO[C@@H]1[C@H](N(C)C(=O)c2ccccc2)C[C@H]2O[C@]1(C)n1c3ccccc3c3c4c(c5c6ccccc6n2c5c31)C(=O)NC4 [Midostaurin] + CS(=O)(=O)N1CCN(Cc2cc3nc(-c4cccc5[nH]ncc45)nc(N4CCOCC4)c3s2)CC1 [Pictilisib] (partner 1 µM)
The procedure, abridged: as §1

Take NCI-H1666: the relative viability in assay [1] (first compound 0.0128 µM) was found to be 0.804; in assay [1] (first compound 0.04048 µM) it was 0.816; in assay [1] (first compound 0.128 µM), 0.733; in assay [1] (first compound 1.28 µM), 0.771; with Midostaurin + Phenformin (first compound 0.01 µM) it was 0.496; in the assay with Midostaurin + Phenformin (first compound 0.03162 µM) it was 0.537. In addition, the relative viability was determined as 0.546 with Midostaurin + Phenformin (first compound 0.1 µM); 0.537 with Midostaurin + Phenformin (first compound 0.3162 µM); 0.719 with Midostaurin + Decitabine (first compound 0.01 µM); 0.684 in the assay with Midostaurin + Decitabine (first compound 0.03162 µM); 0.777 with Midostaurin + Decitabine (first compound 0.1 µM); 0.716 in the assay with Midostaurin + Decitabine (first compound 0.3162 µM). For the same cell line, the relative viability with Midostaurin + Luminespib (first compound 0.01 µM) amounted to 0.966; in the assay with Midostaurin + Luminespib (first compound 0.03162 µM), 0.927; with Midostaurin + Luminespib (first compound 0.1 µM), 0.897; with Midostaurin + Luminespib (first compound 0.3162 µM), 0.864; with Midostaurin + Pictilisib (first compound 0.01 µM), 0.406; with Midostaurin + Pictilisib (first compound 0.03162 µM), 0.359. In addition, the relative viability with Midostaurin + Pictilisib (first compound 0.1 µM) was found to be 0.523; in the assay with Midostaurin + Pictilisib (first compound 0.3162 µM), 0.516.
Regarding NCI-H1651, the relative viability in assay [1] (first compound 0.0128 µM) was 0.879; in assay [1] (first compound 0.04048 µM) it was 1.11; in assay [1] (first compound 0.128 µM), 0.871; in assay [1] (first compound 1.28 µM), 0.638; in the assay with Midostaurin + Phenformin (first compound 0.01 µM), 0.377; with Midostaurin + Phenformin (first compound 0.03162 µM), 0.4. The relative viability with Midostaurin + Phenformin (first compound 0.1 µM) was determined as 0.327; with Midostaurin + Phenformin (first compound 0.3162 µM), 0.299; with Midostaurin + Decitabine (first compound 0.01 µM) it was 0.612; with Midostaurin + Decitabine (first compound 0.03162 µM) it was 0.596; in the assay with Midostaurin + Decitabine (first compound 0.1 µM) it was 0.696; in the assay with Midostaurin + Decitabine (first compound 0.3162 µM), 0.649. Moreover, the relative viability with Midostaurin + Luminespib (first compound 0.01 µM) amounted to 0.905; with Midostaurin + Luminespib (first compound 0.03162 µM), 0.731; with Midostaurin + Luminespib (first compound 0.1 µM), 0.664; in the assay with Midostaurin + Luminespib (first compound 0.3162 µM) it was 0.66; in the assay with Midostaurin + Pictilisib (first compound 0.01 µM) it was 0.543; in the assay with Midostaurin + Pictilisib (first compound 0.03162 µM) it was 0.575. Also, the relative viability in the assay with Midostaurin + Pictilisib (first compound 0.1 µM) came out at 0.529; in the assay with Midostaurin + Pictilisib (first compound 0.3162 µM), 0.512.
For the cell line NCI-H1755, the relative viability turned out to be 1.12 in assay [1] (first compound 0.0128 µM); 0.966 in assay [1] (first compound 0.04048 µM); 0.92 in assay [1] (first compound 0.128 µM); 0.939 in assay [1] (first compound 1.28 µM); 0.631 in the assay with Midostaurin + Phenformin (first compound 0.01 µM); 0.621 in the assay with Midostaurin + Phenformin (first compound 0.03162 µM). Moreover, the relative viability with Midostaurin + Phenformin (first compound 0.1 µM) turned out to be 0.609; with Midostaurin + Phenformin (first compound 0.3162 µM), 0.592; with Midostaurin + Decitabine (first compound 0.01 µM) it was 0.778; with Midostaurin + Decitabine (first compound 0.03162 µM), 0.684; with Midostaurin + Decitabine (first compound 0.1 µM), 0.715; with Midostaurin + Decitabine (first compound 0.3162 µM), 0.739. For the same cell line, the relative viability in the assay with Midostaurin + Luminespib (first compound 0.01 µM) amounted to 0.418; in the assay with Midostaurin + Luminespib (first compound 0.03162 µM) it was 0.47; in the assay with Midostaurin + Luminespib (first compound 0.1 µM) it was 0.247; with Midostaurin + Luminespib (first compound 0.3162 µM) it was 0.443; with Midostaurin + Pictilisib (first compound 0.01 µM) it was 0.397; in the assay with Midostaurin + Pictilisib (first compound 0.03162 µM), 0.345. Besides, the relative viability amounted to 0.407 with Midostaurin + Pictilisib (first compound 0.1 µM) and 0.332 in the assay with Midostaurin + Pictilisib (first compound 0.3162 µM).
NCI-H661: the relative viability is 0.618 in assay [1] (first compound 0.0128 µM); 0.507 in assay [1] (first compound 0.04048 µM); 0.448 in assay [1] (first compound 0.128 µM); 0.357 in assay [1] (first compound 1.28 µM); 0.279 with Midostaurin + Phenformin (first compound 0.01 µM); 0.286 with Midostaurin + Phenformin (first compound 0.03162 µM). The relative viability was found to be 0.261 with Midostaurin + Phenformin (first compound 0.1 µM); 0.311 with Midostaurin + Phenformin (first compound 0.3162 µM); 0.622 with Midostaurin + Decitabine (first compound 0.01 µM); 0.611 with Midostaurin + Decitabine (first compound 0.03162 µM); 0.598 with Midostaurin + Decitabine (first compound 0.1 µM); 0.596 in the assay with Midostaurin + Decitabine (first compound 0.3162 µM). Further, the relative viability with Midostaurin + Luminespib (first compound 0.01 µM) was 0.799; with Midostaurin + Luminespib (first compound 0.03162 µM) it was 0.783; with Midostaurin + Luminespib (first compound 0.1 µM), 0.924; with Midostaurin + Luminespib (first compound 0.3162 µM) it was 1.04; with Midostaurin + Pictilisib (first compound 0.01 µM), 0.397; with Midostaurin + Pictilisib (first compound 0.03162 µM), 0.386. For the same cell line, the relative viability with Midostaurin + Pictilisib (first compound 0.1 µM) was determined as 0.33; with Midostaurin + Pictilisib (first compound 0.3162 µM), 0.438.
As to HARA, the relative viability in assay [1] (first compound 0.0128 µM) is 1; in assay [1] (first compound 0.04048 µM), 0.873; in assay [1] (first compound 0.128 µM), 0.891; in assay [1] (first compound 1.28 µM), 0.62; with Midostaurin + Phenformin (first compound 0.01 µM) it was 0.516; with Midostaurin + Phenformin (first compound 0.03162 µM), 0.466. For the same cell line, the relative viability amounted to 0.467 in the assay with Midostaurin + Phenformin (first compound 0.1 µM); 0.44 with Midostaurin + Phenformin (first compound 0.3162 µM); 0.584 with Midostaurin + Decitabine (first compound 0.01 µM); 0.528 with Midostaurin + Decitabine (first compound 0.03162 µM); 0.539 in the assay with Midostaurin + Decitabine (first compound 0.1 µM); 0.591 in the assay with Midostaurin + Decitabine (first compound 0.3162 µM). The relative viability is 0.917 with Midostaurin + Luminespib (first compound 0.01 µM); 0.712 in the assay with Midostaurin + Luminespib (first compound 0.03162 µM); 0.681 with Midostaurin + Luminespib (first compound 0.1 µM); 0.76 in the assay with Midostaurin + Luminespib (first compound 0.3162 µM); 0.469 with Midostaurin + Pictilisib (first compound 0.01 µM); 0.416 in the assay with Midostaurin + Pictilisib (first compound 0.03162 µM). Moreover, the relative viability in the assay with Midostaurin + Pictilisib (first compound 0.1 µM) came out at 0.295; in the assay with Midostaurin + Pictilisib (first compound 0.3162 µM), 0.333.
For NCI-H596, the relative viability in assay [1] (first compound 0.0128 µM) stood at 1.1; in assay [1] (first compound 0.04048 µM), 1.3; in assay [1] (first compound 0.128 µM), 1.12; in assay [1] (first compound 1.28 µM), 0.748; in the assay with Midostaurin + Phenformin (first compound 0.01 µM), 0.898; in the assay with Midostaurin + Phenformin (first compound 0.03162 µM) it was 0.963. Besides, the relative viability worked out at 0.816 in the assay with Midostaurin + Phenformin (first compound 0.1 µM); 0.986 with Midostaurin + Phenformin (first compound 0.3162 µM); 1.1 in the assay with Midostaurin + Decitabine (first compound 0.01 µM); 1.11 with Midostaurin + Decitabine (first compound 0.03162 µM); 1.07 with Midostaurin + Decitabine (first compound 0.1 µM); 1.12 with Midostaurin + Decitabine (first compound 0.3162 µM). The relative viability was 1.13 in the assay with Midostaurin + Luminespib (first compound 0.01 µM); 1.17 with Midostaurin + Luminespib (first compound 0.03162 µM); 0.869 with Midostaurin + Luminespib (first compound 0.1 µM); 1.18 in the assay with Midostaurin + Luminespib (first compound 0.3162 µM); 0.376 with Midostaurin + Pictilisib (first compound 0.01 µM); 0.435 with Midostaurin + Pictilisib (first compound 0.03162 µM). Moreover, the relative viability with Midostaurin + Pictilisib (first compound 0.1 µM) stood at 0.435; in the assay with Midostaurin + Pictilisib (first compound 0.3162 µM) it was 0.424.
Regarding NCI-H23, the relative viability in assay [1] (first compound 0.0128 µM) was 0.613; in assay [1] (first compound 0.04048 µM) it was 0.417; in assay [1] (first compound 0.128 µM), 0.612; in assay [1] (first compound 1.28 µM), 0.49; with Midostaurin + Phenformin (first compound 0.01 µM) it was 0.713; with Midostaurin + Phenformin (first compound 0.03162 µM), 0.798. In addition, the relative viability with Midostaurin + Phenformin (first compound 0.1 µM) turned out to be 0.773; with Midostaurin + Phenformin (first compound 0.3162 µM), 0.772; with Midostaurin + Decitabine (first compound 0.01 µM), 0.302; in the assay with Midostaurin + Decitabine (first compound 0.03162 µM), 0.368; with Midostaurin + Decitabine (first compound 0.1 µM) it was 0.308; with Midostaurin + Decitabine (first compound 0.3162 µM) it was 0.249. Besides, the relative viability with Midostaurin + Luminespib (first compound 0.01 µM) was found to be 0.263; with Midostaurin + Luminespib (first compound 0.03162 µM), 0.251; with Midostaurin + Luminespib (first compound 0.1 µM), 0.227; with Midostaurin + Luminespib (first compound 0.3162 µM), 0.197; with Midostaurin + Pictilisib (first compound 0.01 µM), 0.448; in the assay with Midostaurin + Pictilisib (first compound 0.03162 µM) it was 0.402. Further, the relative viability with Midostaurin + Pictilisib (first compound 0.1 µM) came out at 0.439; in the assay with Midostaurin + Pictilisib (first compound 0.3162 µM), 0.326.
